Data taken from ChEMBL document CHEMBL1131664, “Design and synthesis of potent and selective 5,6-fused heterocyclic thrombin inhibitors” (Bioorg Med Chem Lett, 1999).

Experiments:
[1] = tested on: Rattus norvegicus; assay: Effect on thrombus weight in rat vena cava thrombosis model (iv administration); format: functional
[2] = target: Serine protease 1 (Homo sapiens, UniProt P07477); assay: Inhibitory activity against trypsin
[3] = Inhibition of factor Xa
[4] = target: Prothrombin (Homo sapiens, UniProt P00734); assay: Inhibition of Coagulation factor II

Sequence of Serine protease 1 (P07477 whole entry): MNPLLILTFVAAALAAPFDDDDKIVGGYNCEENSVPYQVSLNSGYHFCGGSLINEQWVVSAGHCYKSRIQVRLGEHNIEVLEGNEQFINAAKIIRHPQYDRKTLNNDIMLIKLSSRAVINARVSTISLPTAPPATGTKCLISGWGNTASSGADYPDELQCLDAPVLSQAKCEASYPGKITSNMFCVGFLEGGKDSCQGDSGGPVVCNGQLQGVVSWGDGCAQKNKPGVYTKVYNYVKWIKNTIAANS

Ki [2] [nM]	Ki [3] [nM]	Ki [4] [nM]	Compound	ID50 [1] [mg/kg/h]
	25000	300	N=C(N)c1ccc2c(c1)ncn2CC(=O)N1CCC(Cc2ccccc2)CC1	
140	400	7.4	COC(=O)Cc1cn(CC(=O)N2CCC(Cc3ccccc3)CC2)c2ccc(C(=N)N)cc12	
> 6000	2900	140	N=C(N)c1ccc2c(cnn2CC(=O)N2CCC(Cc3ccccc3)CC2)c1	
280	1200	28	COC(=O)/C=C/c1cn(CC(=O)N2CCC(Cc3ccccc3)CC2)c2ccc(C(=N)N)cc12	
	3000	19	N=C(N)c1ccc2c(c1)c(CC(=O)O)cn2CC(=O)N1CCC(Cc2ccccc2)CC1	
	23000	24	N=C(N)c1ccc2c(ccn2CC(=O)N2CCC(Cc3ccccc3F)CC2)c1	
> 15000	10300	18	N=C(N)c1ccc2c(ccn2CC(=O)N2CCC(Cc3ccccc3)CC2)c1	0.8

Second part, the compound before the results:

Compound	Ki [2] [nM]	Ki [3] [nM]	Ki [4] [nM]	ID50 [1] [mg/kg/h]
CC(=O)N[C@H](Cc1ccccc1)C(=O)N1CCC[C@H]1C(=O)N[C@@H](CCCN=C(N)N)B(O)O	9			0.04
N=C(N)c1ccc2c(ccn2CC(=O)N2CCC(C(O)c3ccccc3)CC2)c1 (stereo not given)	> 15000	16000	> 21000	
N=C(N)c1ccc2c(ccn2CC(=O)N2CCC(Cc3cccc(F)c3)CC2)c1		11000	24	
N=C(N)c1ccc2c(c1)c(CCO)cn2CC(=O)N1CCC(Cc2ccccc2)CC1	310	2400	7	
N=C(N)c1ccc2c(ccn2CC(=O)N2CCC(C(=O)c3ccccc3)CC2)c1	> 15000	9500	> 21000	
N=C(N)c1c[nH]c2cc(S(=O)(=O)N3CCC(Cc4ccccc4)CC3)ccc12	1200	3300	210	
